From ChEMBL document CHEMBL2331144, “Synthesis and anticancer activity of analogues of phenstatin, with a phenothiazine A-ring, as a new class of microtubule-targeting agents” (Bioorg Med Chem Lett, 2013)

How the values were obtained:
[1] = Growth inhibition of human NCI-ADR-RES cells after 48 hrs by sulforhodamine B assay; format: functional
[2] = tested on: IGROV-1; test: Growth inhibition of human IGROV1 cells after 48 hrs by sulforhodamine B assay; format: functional; settings: IGROV-1, 48 h
[3] = tested on: NCI-H460; test: Growth inhibition of human NCI-H460 cells after 48 hrs by sulforhodamine B assay; format: functional; settings: NCI-H460, 48 h
[4] = tested on: RPMI-8226; test: Growth inhibition of human RPMI8226 cells after 48 hrs by sulforhodamine B assay; format: functional; settings: RPMI-8226, 48 h
[5] = tested on: A498; test: Growth inhibition of human A498 cells after 48 hrs by sulforhodamine B assay; format: functional; settings: A498, 48 h
[6] = tested on: KM12; test: Growth inhibition of human KM12 cells after 48 hrs by sulforhodamine B assay; format: functional; settings: KM12, 48 h
[7] = tested on: NCI-H522; test: Growth inhibition of human NCI-H522 cells after 48 hrs by sulforhodamine B assay; format: functional; settings: NCI-H522, 48 h
[8] = tested on: TK-10; test: Growth inhibition of human TK10 cells after 48 hrs by sulforhodamine B assay; format: functional; settings: TK-10, 48 h
[9] = tested on: SF-295; test: Growth inhibition of human SF295 cells after 48 hrs by sulforhodamine B assay; format: functional; settings: SF-295, 48 h
[10] = tested on: HOP-62; test: Growth inhibition of human HOP62 cells after 48 hrs by sulforhodamine B assay; format: functional; settings: HOP-62, 48 h
[11] = tested on: SR; test: Growth inhibition of human SR cells after 48 hrs by sulforhodamine B assay; format: functional
[12] = tested on: SF-268; test: Growth inhibition of human SF268 cells after 48 hrs by sulforhodamine B assay; format: functional; settings: SF-268, 48 h
[13] = tested on: OVCAR-3; test: Growth inhibition of human OVCAR3 cells after 48 hrs by sulforhodamine B assay; format: functional; settings: OVCAR-3, 48 h
[14] = tested on: MOLT-4; test: Growth inhibition of human MOLT4 cells after 48 hrs by sulforhodamine B assay; format: functional; settings: MOLT-4, 48 h
[15] = tested on: DU-145; test: Growth inhibition of human DU145 cells after 48 hrs by sulforhodamine B assay; format: functional; settings: DU-145, 48 h
[16] = tested on: CCRF-CEM; test: Growth inhibition of human CCRF-CEM cells after 48 hrs by sulforhodamine B assay; format: functional
[17] = Inhibition of sheep brain tubulin polymerization using DAPI by fluorimetry; design: species or system Ovis aries
[18] = tested on: RXF 393; test: Growth inhibition of human RXF393 cells after 48 hrs by sulforhodamine B assay; format: functional; settings: RXF 393, 48 h
[19] = tested on: LOX IMVI; test: Growth inhibition of human LOXIMVI cells after 48 hrs by sulforhodamine B assay; format: functional
[20] = tested on: PC-3; test: Growth inhibition of human PC3 cells after 48 hrs by sulforhodamine B assay; format: functional; settings: PC-3, 48 h
[21] = tested on: NCI-H23; test: Growth inhibition of human NCI-H23 cells after 48 hrs by sulforhodamine B assay; format: functional; settings: NCI-H23, 48 h
[22] = tested on: A549; test: Growth inhibition of human A549/ATCC cells after 48 hrs by sulforhodamine B assay; format: functional; settings: A549, 48 h
[23] = tested on: MDA-MB-435; test: Growth inhibition of human MDA-MB-435 cells after 48 hrs by sulforhodamine B assay; format: functional; settings: MDA-MB-435, 48 h
[24] = tested on: SK-OV-3; test: Growth inhibition of human SKOV3 cells after 48 hrs by sulforhodamine B assay; format: functional; settings: SK-OV-3, 48 h
[25] = tested on: HL-60(TB); test: Growth inhibition of human HL-60(TB) cells after 48 hrs by sulforhodamine B assay; format: functional; settings: HL-60, 48 h
[26] = tested on: CAKI-1; test: Growth inhibition of human CAKI-1 cells after 48 hrs by sulforhodamine B assay; format: functional; settings: CAKI-1, 48 h
[27] = tested on: MDA-MB-468; test: Growth inhibition of human MDA-MB-468 cells after 48 hrs by sulforhodamine B assay; format: functional; settings: MDA-MB-468, 48 h
[28] = tested on: Malme-3M; test: Growth inhibition of human MALME-3M cells after 48 hrs by sulforhodamine B assay; format: functional
[29] = tested on: UACC-62; test: Growth inhibition of human UACC62 cells after 48 hrs by sulforhodamine B assay; format: functional; settings: UACC-62, 48 h
[30] = tested on: SK-MEL-5; test: Growth inhibition of human SK-MEL-5 cells after 48 hrs by sulforhodamine B assay; format: functional; settings: SK-MEL-5, 48 h
[31] = tested on: UO-31; test: Growth inhibition of human UO31 cells after 48 hrs by sulforhodamine B assay; format: functional; settings: UO-31, 48 h
[32] = tested on: K562; test: Growth inhibition of human K562 cells after 48 hrs by sulforhodamine B assay; format: functional; settings: K562, 48 h
[33] = tested on: BT-549; test: Growth inhibition of human BT549 cells after 48 hrs by sulforhodamine B assay; format: functional; settings: BT-549, 48 h
[34] = tested on: T47D; test: Growth inhibition of human T47D cells after 48 hrs by sulforhodamine B assay; format: functional
[35] = tested on: SW-620; test: Growth inhibition of human SW620 cells after 48 hrs by sulforhodamine B assay; format: functional; settings: SW-620, 48 h
[36] = tested on: SF-539; test: Growth inhibition of human SF539 cells after 48 hrs by sulforhodamine B assay; format: functional; settings: SF-539, 48 h
[37] = tested on: OVCAR-4; test: Growth inhibition of human OVCAR4 cells after 48 hrs by sulforhodamine B assay; format: functional; settings: OVCAR-4, 48 h
[38] = tested on: MCF7; test: Growth inhibition of human MCF7 cells after 48 hrs by sulforhodamine B assay; format: functional; settings: MCF7, 48 h
[39] = tested on: COLO 205; test: Growth inhibition of human COLO205 cells after 48 hrs by sulforhodamine B assay; format: functional; settings: COLO 205, 48 h
[40] = tested on: HCT-116; test: Growth inhibition of human HCT116 cells after 48 hrs by sulforhodamine B assay; format: functional; settings: HCT-116, 48 h
[41] = tested on: OVCAR-5; test: Growth inhibition of human OVCAR5 cells after 48 hrs by sulforhodamine B assay; format: functional; settings: OVCAR-5, 48 h
[42] = tested on: OVCAR-8; test: Growth inhibition of human OVCAR8 cells after 48 hrs by sulforhodamine B assay; format: functional; settings: OVCAR-8, 48 h
[43] = tested on: SK-MEL-2; test: Growth inhibition of human SK-MEL-2 cells after 48 hrs by sulforhodamine B assay; format: functional; settings: SK-MEL-2, 48 h
[44] = Growth inhibition of human Hs 578T cells after 48 hrs by sulforhodamine B assay; format: functional
[45] = species: Ovis aries; test: Inhibition of sheep brain tubulin polymerization at 100 uM using DAPI by fluorimetry
[46] = tested on: SN12C; test: Growth inhibition of human SN12C cells after 48 hrs by sulforhodamine B assay; format: functional
[47] = tested on: HT-29; test: Growth inhibition of human HT-29 cells after 48 hrs by sulforhodamine B assay; format: functional; settings: HT-29, 48 h
[48] = tested on: ACHN; test: Growth inhibition of human ACHN cells after 48 hrs by sulforhodamine B assay; format: functional
[49] = Growth inhibition of human HCC2998 cells after 48 hrs by sulforhodamine B assay; format: functional; settings: HCC 2998, 48 h
[50] = tested on: M14; test: Growth inhibition of human M14 cells after 48 hrs by sulforhodamine B assay; format: functional; settings: M14, 48 h
[51] = tested on: HOP-92; test: Growth inhibition of human HOP92 cells after 48 hrs by sulforhodamine B assay; format: functional; settings: HOP-92, 48 h
[52] = Growth inhibition of human EKVX cells after 48 hrs by sulforhodamine B assay; format: functional
[53] = tested on: UACC-257; test: Growth inhibition of human UACC257 cells after 48 hrs by sulforhodamine B assay; format: functional; settings: UACC-257, 48 h
[54] = tested on: HCT-15; test: Growth inhibition of human HCT15 cells after 48 hrs by sulforhodamine B assay; format: functional; settings: HCT-15, 48 h
[55] = tested on: MDA-MB-231; test: Growth inhibition of human MDA-MB-231 cells after 48 hrs by sulforhodamine B assay; format: functional; settings: MDA-MB-231, 48 h
[56] = tested on: 786-0; test: Growth inhibition of human 786-0 cells after 48 hrs by sulforhodamine B assay; format: functional; settings: 786-0, 48 h
[57] = tested on: SK-MEL-28; test: Growth inhibition of human SK-MEL-28 cells after 48 hrs by sulforhodamine B assay; format: functional; settings: SK-MEL-28, 48 h
[58] = tested on: SNB-75; test: Growth inhibition of human SNB75 cells after 48 hrs by sulforhodamine B assay; format: functional; settings: SNB-75, 48 h

In the case of COc1ccc(C(=O)N2c3ccccc3Sc3ccccc32)cc1F, the GI50 [1] is reported as 112 nM, the GI50 [2] is reported as 572 nM and the GI50 [3] is reported as 372 nM. It also gave a GI50 [4] of 259 nM, a GI50 [5] of 211 nM and a GI50 [6] of 239 nM. For the same molecule, the GI50 [7] was 102 nM, the GI50 [8] was 586 nM and the GI50 [9] was 229 nM. For the same molecule, the GI50 [10] was 539 nM, the GI50 [11] was 271 nM and the GI50 [12] was 819 nM. For the same molecule, the GI50 [13] was 312 nM, the GI50 [14] was 442 nM and the GI50 [15] was 303 nM. It also gave a GI50 [16] of 300 nM, an IC50 [17] of 9480 nM and a GI50 [18] of 272 nM. The GI50 [19] was 590 nM, the GI50 [20] was 419 nM and the GI50 [21] was 393 nM. For the same molecule, the GI50 [22] was 382 nM, the GI50 [23] was 35 nM and the GI50 [24] was 322 nM. For the same molecule, the GI50 [25] was 267 nM, the GI50 [26] was 561 nM and the GI50 [27] was 249 nM. It also gave a GI50 [28] of 991 nM, a GI50 [29] of 518 nM and a GI50 [30] of 335 nM. It also gave a GI50 [31] of 2220 nM, a GI50 [32] of 143 nM and a GI50 [33] of 604 nM. For the same molecule, the GI50 [34] was 468 nM, the GI50 [35] was 358 nM and the GI50 [36] was 290 nM. It also gave a GI50 [37] of 6560 nM, a GI50 [38] of 316 nM and a GI50 [39] of 244 nM. For the same molecule, the GI50 [40] was 375 nM, the GI50 [41] was 522 nM and the GI50 [42] was 384 nM. The GI50 [43] was 355 nM, the GI50 [44] was 285 nM and the inhibition [45] was 95%. The GI50 [46] was 760 nM, the GI50 [47] was 251 nM and the GI50 [48] was 1890 nM. It also gave a GI50 [49] of 314 nM, a GI50 [50] of 216 nM and a GI50 [51] of 209 nM. It also gave a GI50 [52] of 964 nM, a GI50 [53] of 671 nM and a GI50 [54] of 405 nM. The GI50 [55] was 570 nM, the GI50 [56] was 590 nM and the GI50 [57] was 543 nM. It also gave a GI50 [58] of 222 nM.
